Measured values taken from ChEMBL document CHEMBL1909046, “DrugMatrix in vitro pharmacology data”.

Columns and labels:
[1] = DRUGMATRIX: Serotonin (5-Hydroxytryptamine) 5-HT3 radioligand binding (ligand: [3H] GR-65630); type: cell membranes, Membrane; conditions: hek293; Not Active = under 50% inhibition at 10 µM
[2] = biological target: C-C chemokine receptor type 2 (Homo sapiens, UniProt P41597); type: cell membranes, CHO-K1, Membrane; conditions: cho-k1; note: in other assays of this panel Not Active means under 50% inhibition at 10 µM
Chain of C-C chemokine receptor type 2 (P41597 whole entry): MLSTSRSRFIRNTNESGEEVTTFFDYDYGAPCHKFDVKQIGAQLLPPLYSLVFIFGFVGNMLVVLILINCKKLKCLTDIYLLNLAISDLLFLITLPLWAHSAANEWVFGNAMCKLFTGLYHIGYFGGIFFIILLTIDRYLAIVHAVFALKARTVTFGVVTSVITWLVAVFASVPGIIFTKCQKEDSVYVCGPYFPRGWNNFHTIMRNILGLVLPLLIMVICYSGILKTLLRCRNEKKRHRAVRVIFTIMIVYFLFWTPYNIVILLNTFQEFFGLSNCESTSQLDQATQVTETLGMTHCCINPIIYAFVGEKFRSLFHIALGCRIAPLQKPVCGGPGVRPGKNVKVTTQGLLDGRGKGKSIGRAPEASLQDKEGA

[3] = DRUGMATRIX: Tumor Necrosis Factor (TNF), Non-Selective radioligand binding (ligand: [125I] TNF-alpha); type: cell membranes, Membrane; conditions: u-937; Not Active = under 50% inhibition at 10 µM
[4] = DRUGMATRIX: Calcium Channel Type L, Benzothiazepine radioligand binding (ligand: [3H] Diltiazem); type: cell membranes, Rattus norvegicus, Wistar, Brain, Membrane; conditions: Not Active = under 50% inhibition at 10 µM
Caspase-1 = biological target: T1, Caspase-1 (Homo sapiens, UniProt P29466); set-up: species or system Escherichia coli;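 note: Caspase-1 enzyme inhibition assay with a peptide substrate; in other assays of this panel Not Active means under 50% inhibition at 10 µM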
T1 sequence (P29466 whole entry): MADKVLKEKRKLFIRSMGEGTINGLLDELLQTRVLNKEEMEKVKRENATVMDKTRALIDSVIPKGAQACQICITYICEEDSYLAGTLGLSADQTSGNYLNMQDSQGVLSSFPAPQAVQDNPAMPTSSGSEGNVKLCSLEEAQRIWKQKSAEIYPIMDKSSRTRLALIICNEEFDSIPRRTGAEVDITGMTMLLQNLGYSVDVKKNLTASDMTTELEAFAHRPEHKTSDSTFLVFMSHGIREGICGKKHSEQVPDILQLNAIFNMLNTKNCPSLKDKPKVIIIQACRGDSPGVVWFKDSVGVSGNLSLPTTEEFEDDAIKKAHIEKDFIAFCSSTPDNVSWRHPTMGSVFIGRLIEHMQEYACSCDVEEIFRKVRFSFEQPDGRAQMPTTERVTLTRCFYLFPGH

[5] = biological target: C-C chemokine receptor type 5 (Homo sapiens, UniProt P51681); type: cell membranes, Membrane; conditions: hek293; note: in other assays of this panel Not Active means under 50% inhibition at 10 µM
Chain of C-C chemokine receptor type 5 (P51681 whole entry): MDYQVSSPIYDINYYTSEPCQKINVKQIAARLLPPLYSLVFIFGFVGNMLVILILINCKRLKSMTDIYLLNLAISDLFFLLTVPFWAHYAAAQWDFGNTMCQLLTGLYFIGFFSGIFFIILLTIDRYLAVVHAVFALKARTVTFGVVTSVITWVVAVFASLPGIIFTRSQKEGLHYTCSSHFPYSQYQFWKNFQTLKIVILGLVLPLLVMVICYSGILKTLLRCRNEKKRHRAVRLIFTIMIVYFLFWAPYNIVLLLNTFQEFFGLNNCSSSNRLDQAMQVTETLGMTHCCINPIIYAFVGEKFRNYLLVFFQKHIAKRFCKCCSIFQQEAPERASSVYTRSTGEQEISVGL

CCCOc1ccccc1-c1nc2nn[nH]c2c(=O)[nH]1 [ZAPRINAST]
Not Active: IC50 [1] | Ki [1] | IC50 [2] | IC50 [3] | Ki [3] | IC50 [4] | Ki [4] | IC50 (Caspase-1) | IC50 [5]

SODIUM NITROPRUSSIDE
Not Active: IC50 [1] | Ki [1] | IC50 [2] | Ki [2] | IC50 [3] | Ki [3] | IC50 [4] | Ki [4] | IC50 (Caspase-1) | Ki (Caspase-1) | IC50 [5] | Ki [5]
